How the values were obtained:
Aae MutL [1] = molecular target: T1, Aae MutL (Aquifex aeolicus, UniProt O67518); assay: filter-binding assay with 3H nucleotide; conditions: labelled compound; no DNA, ssDNA or dsDNA M13mp18; 10 mM MgCl2, 50 mM NaCl, pH 7.9, room temperature
T1 construct: full-length (C-terminal domain residues 303-425), expressed in E. coli Rosetta (DE3) from pTWIN1 as Mxe GyrA intein fusion, intein tag cleaved off
T1 sequence (O67518 1-425): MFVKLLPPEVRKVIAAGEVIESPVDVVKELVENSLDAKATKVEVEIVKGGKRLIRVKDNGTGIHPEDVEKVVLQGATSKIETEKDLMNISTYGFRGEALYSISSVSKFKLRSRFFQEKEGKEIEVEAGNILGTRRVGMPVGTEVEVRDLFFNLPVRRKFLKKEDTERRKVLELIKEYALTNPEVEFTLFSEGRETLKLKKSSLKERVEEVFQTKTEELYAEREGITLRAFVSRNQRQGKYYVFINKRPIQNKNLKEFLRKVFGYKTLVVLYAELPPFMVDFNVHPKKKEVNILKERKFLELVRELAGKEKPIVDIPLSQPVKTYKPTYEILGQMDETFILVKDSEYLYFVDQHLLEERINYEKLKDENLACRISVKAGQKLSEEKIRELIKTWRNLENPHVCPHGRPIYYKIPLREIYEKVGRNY

Aae MutL [2] = molecular target: T1, Aae MutL; assay: initial rate of supercoiled pBR322 nicking, agarose gel; format: biochemical; conditions: 1 mM AMPPNP, 1 mM MnSO4, pH 7.6, 37 °C; activator

Compound | filter-binding assay with 3H nucleotide (Aae MutL [1]) | initial rate of supercoiled pBR322 nicking, agarose gel (Aae MutL [2])
Nc1ncnc2c1ncn2[C@@H]1O[C@H](COP(=O)(O)OP(=O)(O)O)[C@@H](O)[C@H]1O [ADP] | in the presence of ssDNA MutL binds both ATP and ADP with about equal affinity | –
Nc1ncnc2c1ncn2[C@@H]1O[C@H](COP(=O)(O)OP(=O)(O)NP(=O)(O)O)[C@@H](O)[C@H]1O [AMPPNP] | – | AMPPNP stimulated Aae MutL nicking activity to the same extent as observed with ATP
Nc1ncnc2c1ncn2[C@@H]1O[C@H](COP(=O)(O)OP(=O)(O)OP(=O)(O)O)[C@@H](O)[C@H]1O [ATP] | in the presence of ssDNA MutL binds both ATP and ADP with about equal affinity | –
